# Source: PubChem BioAssay (NCI)
# Where “and” joins values, the source holds several entries; their conditions need not be identical. Identical values can stand only once.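 Where inhibition never reached the appropriate level, the endpoint shown equals the highest concentration tested. Otherwise, values were interpolated linearly from a five-concentration, 48-hour dose response in 96-well plates. GI50 = concentration required for 50% inhibition of growth. TGI denotes the concentration required for complete inhibition of growth.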
# Legend:
# Test in all cases: inhibition of tumour cell growth, NCI panel, 48 h
# [1] = system: RPMI-8226 leukemia
# [2] = system: HOP-92 NSCLC
# [3] = system: OVCAR-4 ovarian
# [4] = system: SR leukemia
# [5] = system: UO-31 renal
# [6] = system: DMS 114 small cell lung
# [7] = system: TK-10 renal
# [8] = system: MOLT-4 leukemia
# [9] = system: RXF 393 renal
# [10] = system: DU-145 prostate
# [11] = system: IGROV1 ovarian
# [12] = system: NCI-H460 lung
# [13] = system: MDA-N
# [14] = system: NCI/ADR-RES ovarian
# [15] = system: MDA-MB-231 breast
# [16] = system: SNB-19 CNS
# [17] = system: COLO 205 colon
# [18] = system: U251 CNS
# [19] = system: MCF7 breast
# [20] = system: MDA-MB-435
# [21] = system: EKVX NSCLC
# [22] = system: SW-620 colon
# [23] = system: SF-268 CNS
# [24] = system: A498 renal
# [25] = system: CAKI-1 renal
# [26] = system: SN12C renal
# [27] = system: K-562 leukemia
# [28] = system: 786-0 renal
# [29] = system: ACHN renal
# [30] = system: HCT-15 colon
# [31] = system: KM12 colon
# [32] = system: UACC-257 melanoma
# [33] = system: CCRF-CEM leukemia
# [34] = system: HOP-62 NSCLC
# [35] = system: PC-3 prostate
# [36] = system: MALME-3M melanoma
# [37] = system: T-47D breast
# [38] = system: UACC-62 melanoma
# [39] = system: HL-60(TB) leukemia
# [40] = system: NCI-H23 lung
# [41] = system: SK-MEL-2 melanoma
# [42] = system: SK-MEL-28 melanoma
# [43] = system: HCC-2998 colon
# [44] = system: OVCAR-8 ovarian
# [45] = system: SK-OV-3 ovarian
# [46] = system: SF-539 CNS
# [47] = system: SF-295 CNS
# [48] = system: SNB-75 CNS
# [49] = system: HT29 colon
# [50] = system: OVCAR-3 ovarian
# [51] = system: SK-MEL-5 melanoma
# [52] = system: A549 NSCLC
# [53] = system: M14 melanoma
# [54] = system: HS 578T breast
# [55] = system: OVCAR-5 ovarian
# [56] = system: LOX IMVI melanoma
# [57] = system: NCI-H522 lung
# [58] = system: BT-549 breast
# [59] = system: NCI-H226 lung
# [60] = system: HCT-116 colon
# [61] = system: KM20L2 colon
# [62] = system: DLD-1 colon
# [63] = system: LXFL 529 NSCLC
# [64] = system: M19-MEL melanoma
smiles,measurement,setting,value
CC(=O)OCC1OC(n2c(=S)n(-c3ccc(C)cc3)c(=O)c3ccccc32)C(OC(C)=O)C(OC(C)=O)C1OC(C)=O (configuration not stated),TGI,[1],> 100 µM
same,TGI,[2],> 100 µM
same,GI50,[3],17 µM and 45.1 µM
same,TGI,[3],83.9 µM and > 100 µM
same,TGI,[4],> 100 µM
same,TGI,[5],> 100 µM
same,GI50,[6],41.9 µM and 90 µM
same,TGI,[6],> 100 µM
same,TGI,[7],> 100 µM
same,TGI,[8],> 100 µM
same,TGI,[9],> 100 µM
COc1ccc(C(OCC2OC(n3cnc4c(=O)n(Cc5ccccc5[N+](=O)[O-])nnc43)C(O)C2O)(c2ccccc2)c2ccc(OC)cc2)cc1 (configuration not stated),TGI,[10],> 100 µM
same,TGI,[11],> 71.2 µM
same,TGI,[12],> 53.1 µM
same,TGI,[13],47.6 µM
same,TGI,[14],> 100 µM
same,TGI,[15],> 61.8 µM
same,TGI,[1],15.7 µM
same,TGI,[16],> 100 µM
same,TGI,[17],34.5 µM
same,TGI,[18],> 100 µM
same,TGI,[19],> 100 µM
same,TGI,[20],> 91.4 µM
same,TGI,[21],> 100 µM
same,TGI,[22],> 100 µM
same,TGI,[23],> 100 µM
same,TGI,[24],34.5 µM
same,TGI,[25],> 56.7 µM
same,TGI,[26],45.7 µM
same,TGI,[2],23.2 µM
same,TGI,[27],> 57.4 µM
same,TGI,[28],> 100 µM
same,TGI,[29],97.9 µM
same,TGI,[30],91.2 µM
same,TGI,[31],> 92.4 µM
same,TGI,[32],> 100 µM
same,TGI,[33],20.7 µM
same,TGI,[34],> 100 µM
same,TGI,[35],> 100 µM
same,TGI,[36],49.2 µM
same,TGI,[37],> 100 µM
same,TGI,[3],> 100 µM
same,TGI,[38],38.8 µM
same,TGI,[4],8.88 µM
same,TGI,[39],5.85 µM
same,TGI,[5],> 87.4 µM
same,TGI,[40],> 90.8 µM
same,TGI,[7],64.1 µM
same,TGI,[41],60.6 µM
same,TGI,[42],69.5 µM
same,TGI,[43],26.9 µM
same,TGI,[44],> 100 µM
same,TGI,[45],> 100 µM
same,TGI,[8],9.57 µM
same,TGI,[46],34.1 µM
same,TGI,[47],> 100 µM
same,TGI,[48],> 100 µM
same,TGI,[49],59.1 µM
same,TGI,[50],> 62.3 µM
same,TGI,[51],> 45.5 µM
same,TGI,[52],> 100 µM
same,TGI,[53],> 100 µM
same,TGI,[54],> 94 µM
same,TGI,[55],> 100 µM
same,TGI,[56],> 39.4 µM
same,TGI,[57],48.9 µM
same,TGI,[9],> 59.5 µM
same,TGI,[58],> 100 µM
same,TGI,[59],45.5 µM
same,TGI,[60],13.1 µM
COC(=O)C1=C(C)N2CCOC2(C)C(C(=O)OC)C1c1ccc[nH]1 (configuration not stated),TGI,[11],> 100 µM
same,TGI,[12],> 100 µM
same,TGI,[61],> 100 µM
same,TGI,[1],> 100 µM
same,TGI,[16],> 100 µM
same,TGI,[17],> 100 µM
same,TGI,[21],> 100 µM
same,TGI,[22],> 100 µM
same,TGI,[23],> 100 µM
same,TGI,[25],> 100 µM
same,TGI,[2],> 100 µM
same,TGI,[27],> 100 µM
same,TGI,[29],> 100 µM
same,TGI,[31],> 100 µM
same,TGI,[32],> 100 µM
same,TGI,[33],> 100 µM
same,TGI,[62],> 100 µM
same,TGI,[34],> 100 µM
same,TGI,[3],> 100 µM
same,TGI,[38],> 100 µM
same,TGI,[4],> 100 µM
same,TGI,[39],> 100 µM
same,TGI,[5],> 100 µM
same,TGI,[6],> 100 µM
same,TGI,[40],> 100 µM
same,TGI,[7],> 100 µM
same,TGI,[41],> 100 µM
same,TGI,[42],> 100 µM
same,TGI,[43],> 100 µM
same,TGI,[44],> 100 µM
same,TGI,[8],> 100 µM
same,TGI,[46],> 100 µM
same,TGI,[47],> 100 µM
same,TGI,[48],82.9 µM
same,TGI,[49],> 100 µM
same,TGI,[50],> 100 µM
same,TGI,[51],> 100 µM
same,TGI,[52],> 100 µM
same,TGI,[53],> 100 µM
same,TGI,[63],> 100 µM
same,TGI,[9],> 100 µM
same,TGI,[59],> 100 µM
same,TGI,[64],> 100 µM
same,TGI,[60],> 100 µM
O=C(CC(=O)Nc1ccccc1Cl)NNC(c1cc(N=Nc2ccc(Br)cc2)ccc1O)P(O)O (configuration not stated),TGI,[10],> 10 µM
same,TGI,[11],> 10 µM
same,TGI,[12],> 10 µM
same,TGI,[13],> 10 µM
same,TGI,[14],> 10 µM
same,TGI,[15],> 10 µM
same,TGI,[1],> 10 µM
same,TGI,[16],> 10 µM
same,TGI,[17],> 10 µM
same,TGI,[18],> 10 µM
same,TGI,[19],> 10 µM
same,TGI,[20],> 10 µM
same,TGI,[21],> 10 µM
same,TGI,[22],> 10 µM
same,TGI,[23],> 10 µM
same,TGI,[24],7.87 µM
same,TGI,[25],6.71 µM
same,TGI,[26],> 10 µM
same,TGI,[2],> 10 µM
same,TGI,[27],6.78 µM
same,TGI,[28],> 10 µM
same,TGI,[29],> 10 µM
same,TGI,[30],> 10 µM
same,TGI,[31],> 10 µM
same,TGI,[32],> 10 µM
same,TGI,[33],9.58 µM
same,TGI,[34],> 10 µM
same,TGI,[35],> 10 µM
same,TGI,[36],> 10 µM
same,TGI,[37],> 10 µM
same,TGI,[3],> 10 µM
same,TGI,[38],6.12 µM
same,TGI,[4],> 10 µM
same,TGI,[39],1.18 µM
same,TGI,[5],> 10 µM
same,TGI,[40],> 10 µM
same,TGI,[7],> 10 µM
same,TGI,[41],> 10 µM
same,TGI,[42],> 10 µM
same,TGI,[43],> 10 µM
same,TGI,[44],3.57 µM
same,TGI,[45],> 10 µM
same,TGI,[8],> 10 µM
same,TGI,[46],5.89 µM
same,TGI,[47],> 10 µM
same,TGI,[48],9.72 µM
same,TGI,[49],> 10 µM
same,TGI,[50],> 10 µM
same,TGI,[51],4.96 µM
same,TGI,[52],> 10 µM
same,TGI,[53],2.72 µM
same,TGI,[54],> 10 µM
same,TGI,[55],> 10 µM
same,TGI,[56],9.51 µM
same,TGI,[57],> 10 µM
same,TGI,[9],> 10 µM
same,TGI,[58],> 10 µM
same,TGI,[59],6 µM
same,TGI,[60],0.964 µM
Cc1ccc2nc(C=Nc3ccccc3Cl)cc(C)c2c1,TGI,[10],> 100 µM
same,TGI,[11],36.7 µM
same,TGI,[12],38.6 µM
same,TGI,[13],23.8 µM
same,TGI,[14],40.2 µM
same,TGI,[15],35.6 µM
same,TGI,[1],> 100 µM
same,TGI,[16],> 100 µM
same,TGI,[17],> 100 µM
same,TGI,[18],37.7 µM
same,TGI,[19],46.8 µM
same,TGI,[20],28.5 µM
same,TGI,[21],> 100 µM
same,TGI,[22],28.5 µM
same,TGI,[23],40 µM
same,TGI,[24],> 100 µM
same,TGI,[25],> 100 µM
same,TGI,[26],28.6 µM
same,TGI,[2],83 µM
same,TGI,[27],> 100 µM
same,TGI,[28],33.2 µM
same,TGI,[29],> 100 µM
same,TGI,[30],38.1 µM
same,TGI,[31],35.9 µM
same,TGI,[32],30.6 µM
same,TGI,[33],52.8 µM
same,TGI,[34],> 100 µM
same,TGI,[35],> 100 µM
same,TGI,[36],61.9 µM
same,TGI,[37],47.4 µM
same,TGI,[3],92.9 µM
same,TGI,[38],30.4 µM
same,TGI,[4],26.6 µM
same,TGI,[39],18.4 µM
same,TGI,[5],35.5 µM
same,TGI,[40],46.4 µM
same,TGI,[7],98.7 µM
same,TGI,[41],> 100 µM
same,TGI,[42],42 µM
same,TGI,[43],> 100 µM
same,TGI,[44],29.9 µM
same,TGI,[45],> 100 µM
same,TGI,[8],35.1 µM
same,TGI,[46],33.7 µM
same,TGI,[47],47.2 µM
same,TGI,[48],56.2 µM
same,TGI,[49],36.8 µM
same,TGI,[50],35.4 µM
same,TGI,[51],29.5 µM
same,TGI,[52],> 100 µM
same,TGI,[53],35.1 µM
same,TGI,[54],81.2 µM
same,TGI,[55],> 100 µM
same,TGI,[56],22.6 µM
same,TGI,[57],47.2 µM
same,TGI,[9],29.6 µM
same,TGI,[58],30.1 µM
same,TGI,[59],48.8 µM
same,TGI,[60],16.3 µM
